From patent US8455522B2, “Benzoxazolone derivatives as aldosterone synthase inhibitors” (Novartis AG, priority 2009, dated 2013)

How the values were obtained:
aldosterone synthase = biological target: T1, aldosterone synthase (Homo sapiens, UniProt P19099); assay: Aldosterone cell secretion in NCI-H295R cells (aldosterone synthase inhibition, SPA); type: cell-based; conditions: human adrenocortical carcinoma NCI-H295R cells, 1 μM Ang II, 24 hr
T1 construct: host or cells: NCI-H295R
T1 sequence (P19099 25-503): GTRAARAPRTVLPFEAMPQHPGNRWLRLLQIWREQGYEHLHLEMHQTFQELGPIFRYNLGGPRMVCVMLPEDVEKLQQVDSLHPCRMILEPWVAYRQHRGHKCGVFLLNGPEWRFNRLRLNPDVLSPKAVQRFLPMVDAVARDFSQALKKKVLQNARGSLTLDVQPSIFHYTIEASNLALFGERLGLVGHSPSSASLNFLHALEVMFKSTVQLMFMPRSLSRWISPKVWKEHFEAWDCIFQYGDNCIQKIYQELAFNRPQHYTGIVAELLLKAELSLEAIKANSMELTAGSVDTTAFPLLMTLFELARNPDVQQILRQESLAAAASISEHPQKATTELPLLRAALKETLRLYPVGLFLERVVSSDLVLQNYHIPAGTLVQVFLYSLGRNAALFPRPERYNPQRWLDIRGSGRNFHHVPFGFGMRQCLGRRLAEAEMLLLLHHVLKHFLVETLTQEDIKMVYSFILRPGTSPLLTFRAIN
Excerpt: In particular, the aldosterone synthase inhibitory activities in vitro can be determined by the following assay.
Human adrenocortical carcinoma NCI-H295R cell line was obtained from American Type Culture Collection (Manassas, Va.). Insulin/transferrin/selenium (ITS)-A supplement (100×). DMEM/F-12, antibiotic/antimycotic (100×), and fetal bovine serum (FBS) were purchased from Invitrogen (Carlsbad, Calif.). Anti-mouse PVT scintillation proximity assay (SPA) beads and NBS 96-well plates were obtained from GE Health Sciences (Piscataway, N.J.) and Corning (Acton, Mass.), respectively. Solid black 96-well flat bottom plates were purchased from Costar (Corning, N.Y.). Aldosterone and angiotensin (Ang II) were purchased from Sigma (St. Louis, Mo.). D-[1,2,6,7-^3H(N)]aldosterone was acquired from PerkinElmer (Boston, Mass.). Nu-serum was a product of BD Biosciences (Franklin Lakes, N.J.). The NADPH regenerating system, dibenzylfluorescein (DBF), and human aromatase Supersomes® were obtained from Gentest (Woburn, Mass.).
For in vitro measurement of aldosterone activity, human adrenocortical carcinoma NCI-H295R cells are seeded in NBS 96-well plates at a density of 25,000 cells/well in 100 μl of a growth medium containing DMEM/F12 supplemented with 10% FCS, 2.5% Nu-serum, 1 μg ITS/ml, and 1× antibiotic/antimycotic. The medium is changed after culturing for 3 days at 37° C. under an atmosphere of 5% CO2/95% air. On the following day, cells are rinsed with 100 μl of phosphate-buffered saline (PBS) and incubated with 100 μl of treatment medium containing 1 μM Ang II and a compound at different concentrations in quadruplicate wells at 37° C. for 24 hr. At the end of incubation, 50 μl of medium is withdrawn from each well for measurement of aldosterone production by an SPA using mouse anti-aldosterone monoclonal antibodies.
Measurement of aldosterone activity can also be performed using a 96-well plate format. Each test sample is incubated with 0.02 μCi of D-[1,2,6,7-^3H(N)]aldosterone and 0.3 μg of anti-aldosterone antibody in PBS containing 0.1% Triton X-100, 0.1% bovine serum albumin, and 12% glycerol in a total volume of 200 μl at room temperature for 1 hr. Anti-mouse PVT SPA beads (50 μl) are then added to each well and incubated overnight at room temperature prior to counting in a Microbeta plate counter. The amount of aldosterone in each sample is calculated by comparing with a standard curve generated using known quantities of the hormone.
(§1) Inhibition of the release of certain steroids can be used as a measure of the respective enzyme inhibition by the added test compounds. The dose-dependent inhibition of enzymic activity by a compound is calculated by means of an inhibition plot which is characterized by an IC50.
The IC50 values for active test compounds are ascertained by a simple linear regression analysis in order to construct inhibition plots without data weighting. The inhibition plot is calculated by fitting a 4-parameter logistic function to the raw data points using the least squares method. The equation of the 4-parameter logistic function is calculated as follows: Y=(d−a)/((1+(x/c)b))+a, where: a=minimum data level, b=gradient, I […], d=maximum data level, x=inhibitor concentration.
The inhibition activity of aldosterone production can also be expressed in percentage inhibition (% inhibition) at a given concentration (e.g. % inhibition at 1 μM), which is the aldosterone level when the cell is treated with the given concentration of a compound of this invention (e.g. concentration of 1 μM) versus the aldosterone excretion when cell is free of the compound of the invention: % inhibition aldosterone production=[(Y−X)/Y]×100 wherein X is the level of aldosterone when the cell is treated with a compound of Formula I; and Y is the level of aldosterone when the cell is free of compound of Formula I.

CYP11B1 = biological target: T2, CYP11B1 (Homo sapiens, UniProt P15538); assay: Cortisol cell secretion in NCI-H295R cells (CYP11B1 activity); type: cell-based; conditions: compound at 1 μM; for inhibition at 1 µM: NCI-H295R, read-out: Cortisol cell secretion (% Inhib. @ 1 μM)
T2 construct: the NCI-H295R cells have Cyp11 B1 (steroid 11 β-hydroxylase); host or cells: NCI-H295R
T2 sequence (P15538 25-503): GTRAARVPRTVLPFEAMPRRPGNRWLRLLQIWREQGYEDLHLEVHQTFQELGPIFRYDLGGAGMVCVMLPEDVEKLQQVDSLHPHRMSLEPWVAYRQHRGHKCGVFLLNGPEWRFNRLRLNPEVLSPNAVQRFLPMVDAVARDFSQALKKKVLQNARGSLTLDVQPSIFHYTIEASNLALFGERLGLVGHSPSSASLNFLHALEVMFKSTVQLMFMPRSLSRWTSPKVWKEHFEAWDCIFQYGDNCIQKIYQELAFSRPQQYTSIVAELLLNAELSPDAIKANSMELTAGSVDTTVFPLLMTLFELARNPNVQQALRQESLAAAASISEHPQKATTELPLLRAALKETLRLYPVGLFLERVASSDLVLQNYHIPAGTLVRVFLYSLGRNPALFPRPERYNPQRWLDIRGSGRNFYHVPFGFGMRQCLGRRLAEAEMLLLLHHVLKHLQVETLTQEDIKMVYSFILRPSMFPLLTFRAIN
Excerpt: The in vitro inhibitory activities for CYP1B1 can be determined by the following assay.
The cell line NCI-H295R was originally isolated from an adrenocortical carcinoma and has been characterized in the literature through the stimulable secretion of steroid hormones and the presence of the enzymes essential for steroidogenesis. Thus, the NCI-H295R cells have Cyp11 B1 (steroid 11 β-hydroxylase). The cells show the physiological property of zonally undifferentiated human foetal adrenocortical cells which, however, have the capacity to produce the steroid hormones which are formed in the three, phenotypically distinguishable zones in the adult adrenal cortex.
The NCI-H295R cells (American Type Culture Collection, ATCC, Rockville, Md., USA) are grown in Dulbeoco's Modified Eagle'Ham F-12 Medium (DME/F12), which has been supplemented with Ulroser SF Serum (Soprachem, Geigy-Saint-Christophe, France), insulin, transferrin, selenite (I-T-S, Becton Dickinson Biosiences, Franklin lakes. NJ, USA) and antibiotics in 75 cm^2 cell culture vessels at 37° C. and in a 95% air-5% carbon dioxide atmosphere. The cells are subsequently transferred for colony formation into a 24-well incubation vessel. They are cultivated there in DME/F12 medium, which is now supplemented with 0.1% bovine serum instead of Ultroser SF for 24 hours. The experiment is initiated by cultivating the cells in DME/F12 medium which is supplemented with 0.1% bovine serum albumin and test compound, in the presence or absence of cell stimulants, for 72 hours. The test substance is added in a concentration range from 0.2 nanomolar to […]. Cell stimulants which can be used are angiotensin II (1 D or 100 nanomolar), potassium ions (16 millimolar), forskolin (10 micromolar) or a combination of two stimulants.
The excretion of aldosterone, cortisol, corticosterone and estradiol/estrone into the culture medium can be detected and quantified by commercially available, specific monoclonal antibodies in radioimmunoassays in accordance with the manufacturer's instructions.
as §1
The inhibition activity of cortisol production (CYP11B1 activity) can also be expressed in percentage inhibition (% inhibition) at a given concentration (e.g. % inhibition at 1 μM), which is the cortisol level when cell is treated with the given concentration of a compound of the invention (e.g. concentration of 1 μM) versus the cortisol excretion when cell is free of the compound of the invention. % inhibition cortisol production=[(Y′−X′)/Y′]×100 wherein X′ is the level of cortisol when the cell is treated with a compound of Formula I; and Y′ is the level of cortisol when the cell is free of compound of Formula I.

SMILES | IC50 (aldosterone synthase) | inhibition at 1 µM (CYP11B1) | Cortisol cell secretion (% Inhib. @ 1 μM) (CYP11B1)
Cc1ccncc1-c1ccc2oc(=O)n(C)c2c1 [Example 2, 3-Methyl-5-(4-methyl-pyridin-3-yl)-3H-benzooxazol-2-one] | 4 nM | 82% | –
Cn1c(=O)oc2ccc(-c3cncc(F)c3CO)cc21 [Example 36, 5-(5-fluoro-4-(hydroxymethyl)pyridin-3-yl)-3-methylbenzo[d]oxazol-2(3H)-one] | 144 nM | 13% | –
Cn1c(=O)oc2ccc(-c3cncc(C(N)C(F)(F)F)c3)cc21 (single isomer, unassigned) [Example 29 Enantiomer 1, 5-(5-(1-amino-2,2,2-trifluoroethyl)pyridin-3-yl)-3-methylbenzo[d]oxazol-2(3H)-one] | 47 nM | 57% | –
Cn1c(=O)oc2ccc(-c3cnccc3C(O)c3ccc(F)cc3)cc21 (single isomer, unassigned) [Example 8 Enantiomer 1, 5-(4-((4-fluorophenyl)(hydroxy)methyl)pyridin-3-yl)-3-methylbenzo[d]oxazol-2(3H)-one] | 53 nM | 77% | –
Cn1c(=O)oc2ccc(-c3cncc(C(O)C4CC4)c3)cc21 (single isomer, unassigned) [Example 13 Enantiomer 2, 5-(5-(cyclopropyl(hydroxy)methyl)pyridin-3-yl)-3-methylbenzo[d]oxazol-2(3H)-one] | 30 nM | – | 64%
CCN(Cc1ccccc1)Cc1cncc(-c2ccc3oc(=O)n(C)c3c2)c1 [Example 10, 5-{5-[(Benzyl-ethyl-amino)-methyl]-pyridin-3-yl}-3-methyl-3H-benzooxazol-2-one] | 17 nM | 96% | –
Cn1c(=O)oc2cc(F)c(-c3cncc(CO)c3)cc21 [Example 11] | 128 nM | 39% | –
Cn1c(=O)oc2ccc(-c3cncc(C(N)C(F)(F)F)c3)cc21 (single isomer, unassigned) [Example 29 Enantiomer 2, 5-(5-(1-amino-2,2,2-trifluoroethyl)pyridin-3-yl)-3-methylbenzo[d]oxazol-2(3H)-one] | 34 nM | – | 57%
COc1cncc(-c2ccc3oc(=O)n(C)c3c2)c1 [Example 4, 5-(5-methoxypyridin-3-yl)-3-methylbenzo[d]oxazol-2(3H)-one] | 18 nM | 77% | –
CC(O)c1ccncc1-c1ccc2oc(=O)n(C)c2c1 (single isomer, unassigned) [Example 7 Enantiomer 1, 5-(4-(1-hydroxyethyl)pyridin-3-yl)-3-methylbenzo[d]oxazol-2(3H)-one] | 437 nM | – | –
Cn1c(=O)oc2ccc(-c3cncc(CO)c3)cc21 [Example 15, 5-(5-(hydroxymethyl)pyridin-3-yl)-3-methylbenzo[d]oxazol-2(3H)-one] | 21 nM | 83% | –
CN(c1cncc(-c2ccc3oc(=O)n(C)c3c2)c1)S(=O)(=O)C1CC1 [Example 21, N-methyl-N-(5-(3-methyl-2-oxo-2,3-dihydrobenzo[d]oxazol-5-yl)pyridin-3-yl)cyclopropanesulfonamide] | 68 nM | 65.5% | –
CCCS(=O)(=O)Nc1cncc(-c2ccc3oc(=O)n(C)c3c2)c1 [Example 28, N-(5-(3-methyl-2-oxo-2,3-dihydrobenzo[d]oxazol-5-yl)pyridin-3-yl)propane-1-sulfonamide] | 154 nM | 30% | –
Cn1c(=O)oc2ccc(-c3cncc(CCO)c3)cc21 [Example 18, 5-(5-(2-hydroxyethyl)pyridin-3-yl)-3-methylbenzo[d]oxazol-2(3H)-one] | 34 nM | 57% | –
Cn1c(=O)oc2ccc(-c3cncc(C(C)(C)O)c3)cc21 [Example 14, 5-(5-(2-hydroxypropan-2-yl)pyridin-3-yl)-3-methylbenzo[d]oxazol-2(3H)-one] | 3 nM | 89% | –
Cn1c(=O)oc2ccc(-c3cccnc3)cc21 [Example 1, 3-Methyl-5-pyridin-3-yl-3H-benzooxazol-2-one] | 17.8 nM | 58% | –
CC(O)c1ccncc1-c1ccc2oc(=O)n(C)c2c1 (single isomer, unassigned) [Example 7 Enantiomer 2, 5-(4-(1-hydroxyethyl)pyridin-3-yl)-3-methylbenzo[d]oxazol-2(3H)-one] | 452 nM | – | –
